From patent US20160295864A1 (priority 2014, published 2016)

Tests used:
[1] = system: Pyricularia oryzae (Magnaporthe grisea); assay: microbe, parasite or virus in culture; format: cell-based; settings: read-out: Magnaporthe grisea inhibition
[2] = system: Botrytis cinerea AARF-033; assay: Antifungal activity test against rice Botrytis cinerea (96 well microplate, conidia in glucose broth); format: cell-based; settings: AARF033, 96 h, conidia 1×10^4 conidia/ml, stationary culturing for 4 days at 25° C.
From the text: Test specimens (compound (4a-2) and compound (4b-2)), (compound (4a-3) and compound (4b-3)), and reference compounds i.e. iprodione and Captan, were each independently dissolved in dimethyl sulfoxide (DMSO) and adjusted to a concentration of 10,000 ppm. The test solution was dispensed 2 μ/ml in a flat-bottomed 96 well microplate, and then, conidia of rice Botrytis cinerea (Botrytis cinerea AARF-033) cultured on glucose agar medium, suspended in glucose broth and adjusted to 1×10^4 conidia/ml, were dispensed 198 μ/mL, followed by stirring by a micromixer. At that time, the concentrations of the test specimen and the reference compound, were 100 ppm. Thereafter, the antimicrobial activities were evaluated by stationary culturing for 4 days at 25° C.

Row | SMILES | inhibition at 100 ppm [1] | inhibition at 100 ppm [2]
1 | CCCCNC(=O)n1c(NC(=O)OC)nc2ccccc21 [Benomyl, benomyl] | ≥ 95% | –
2 | O=C1C2CC=CCC2C(=O)N1SC(Cl)(Cl)Cl (stereo not shown) [Captan] | – | ≥ 95%
3 | CO/N=C(/C1=NOCCO1)c1ccccc1Oc1ncnc(Oc2ccccc2Cl)c1F [Fluoxastrobin, fluoxastrobin] | ≥ 95% | –
4 | CC(C)NC(=O)N1CC(=O)N(c2cc(Cl)cc(Cl)c2)C1=O [Iprodione, iprodione] | – | ≥ 95%
